Experiments:
[1] = molecular target: T1, human bradykinin 1 receptor (B1R) (Homo sapiens, UniProt P46663); assay: FLIPR Ca2+ assay, B1R antagonism, human; type: cell-based; details: 10 μM test substance; CHO K1 cells with human B1R gene (hB1R cells); Lys-Des-Arg9-bradykinin at EC80; % inhibition compared with the maximum achievable inhibition; read-out: B1R antagonism, human [10 μM] % inhibition
T1 construct: expressed in transfected cells
T1 sequence (P46663 1-353): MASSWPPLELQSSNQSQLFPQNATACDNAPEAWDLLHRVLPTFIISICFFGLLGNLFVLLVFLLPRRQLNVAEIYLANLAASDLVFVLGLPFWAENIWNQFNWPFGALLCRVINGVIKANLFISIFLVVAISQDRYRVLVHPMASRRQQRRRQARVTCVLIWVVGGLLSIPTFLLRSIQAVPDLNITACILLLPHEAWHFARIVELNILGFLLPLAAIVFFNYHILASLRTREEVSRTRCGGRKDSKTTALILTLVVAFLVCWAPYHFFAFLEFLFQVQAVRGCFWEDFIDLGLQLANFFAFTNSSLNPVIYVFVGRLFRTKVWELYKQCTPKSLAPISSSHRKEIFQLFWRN
Experimental: The agonistic or antagonistic action of substances can be quantified on the bradykinin 1 receptor (B1R) of the human and rat species with ectopically expressing cell lines (CHO K1 cells) and with the aid of a Ca^2+-sensitive dyestuff (Fluo-4) in a fluorescent imaging plate reader (FLIPR). The figure in % activation is based on the Ca^2+ signal after addition of Lys-Des-Arg^9-bradykinin (0.5 nM) or Des-Arg^9-bradykinin (100 nM). Antagonists lead to a suppression of the Ca^2+ inflow after addition of the agonist. % inhibition compared with the maximum achievable inhibition is stated.
The agonistic or antagonistic action of substances can be determined on the bradykinin 1 receptor (B1R) of the human and rat species with the following assay. In accordance with this assay, the Ca^2+ inflow through the channel is quantified with the aid of a Ca^2+-sensitive dyestuff (type Fluo-4, Molecular Probes Europe BV, Leiden, Holland) in a fluorescent imaging plate reader (FLIPR, Molecular Devices, Sunnyvale, USA).
Chinese hamster ovary cells (CHO K1 cells) transfected stably with the human B1R gene (hB1R cells) or the B1R gene of the rat (rB1R cells) are used. For functional studies, these cells are plated out on black 96-well plates with a clear base (BD Biosciences, Heidelberg, Germany or Greiner, Frickenhausen, Germany) in a density of 20,000-35,000 cells/well. The cells are left overnight at 37° C. and 5% CO2 in culture medium (hB1R cells: Nutrient Mixture Ham's F12, Gibco Invitrogen GmbH, Karlsruhe, Germany or DMEM, Sigma-Aldrich, Taufkirchen, Germany; rB1R cells: D-MEM/F12, Gibco Invitrogen GmbH, Karlsruhe, Germany) with 10 vol. % FBS (foetal bovine serum, Gibco Invitrogen GmbH, Karlsruhe, Germany or PAN Biotech GmbH, Aidenbach, Germany).
On the following day, the cells are loaded for 60 min at 37° C. with 2.13 μM Fluo-4 (Molecular Probes Europe BV, Leiden, Holland) in HBSS buffer (Hank's buffered saline solution, Gibco Invitrogen GmbH, Karlsruhe, Germany) with 2.5 mM probenecid (Sigma-Aldrich, Taufkirchen, Germany) and 10 mM HEPES (Sigma-Aldrich, Taufkirchen, Germany). The plates are then washed 2× with HBSS buffer, and HBSS buffer which additionally contains 0.1% BSA (bovine serum albumin; Sigma-Aldrich, Taufkirchen, Germany), 5.6 mM glucose and 0.05% gelatine (Merck KGaA, Darmstadt, Germany) is added. After a further incubation of 20 minutes at room temperature, the plates are inserted into the FLIPR for the Ca^2+ measurement.
Alternatively, the plates are washed with buffer A (15 mM HEPES, 80 mM NaCl, 5 mM KCl, 1.2 mM CaCl2, 0.7 mM MgSO4, 2 g/l glucose, 2.5 mM probenecid), buffer A is added and the plates are loaded with 2.5 μM Fluo-4 and 0.025% Pluronic F127 (Sigma-Aldrich, Taufkirchen, Germany). Thereafter, the cells are washed 2× with buffer A and incubated for 30 minutes with buffer A, which additionally contains 0.05% BSA and 0.05% gelatine, at room temperature and thereafter inserted into the FLIPR for the Ca^2+ measurement.
The Ca^2+-dependent fluorescence is measured here before and after addition of substances (λex=488 nm, λem=540 nm). Quantification is by measurement of the highest fluorescence intensity (FC, fluorescence counts) over time.
The FLIPR protocol consists of 2 additions of substance. Test substances (10 μM) are first pipetted on to the cells and the Ca^2+ inflow is compared with the control (hB1R: Lys-Des-Arg^9-bradykinin >=50 nM; rB1R: Des-Arg^9-bradykinin 10 μM). This gives the figure in % activation based on the Ca^2+ signal after addition of Lys-Des-Arg^9-bradykinin (>=50 nM) or Des-Arg^9-bradykinin (10 μM).
After incubation for 10-20 minutes, Lys-Des-Arg^9-bradykinin (hB1R) or Des-Arg^9-bradykinin (rB1R) in the concentration of the EC80 is applied and the inflow of Ca^2+ is likewise determined. Antagonists lead to a suppression of the Ca^2+ inflow. % inhibition compared with the maximum achievable inhibition is calculated. […]

[2] = molecular target: T2, bradykinin 1 receptor (B1R) of the rat (Rattus norvegicus, UniProt P97583); assay: FLIPR Ca2+ assay, B1R antagonism, rat; type: cell-based; details: CHO-K1, 10 μM test substance; CHO K1 cells with rat B1R gene (rB1R cells); Des-Arg9-bradykinin at EC80; % inhibition compared with the maximum achievable inhibition; read-out: B1R antagonism, rat [10 μM] % inhibition
T2 construct: expressed in transfected cells
T2 sequence (P97583 1-337): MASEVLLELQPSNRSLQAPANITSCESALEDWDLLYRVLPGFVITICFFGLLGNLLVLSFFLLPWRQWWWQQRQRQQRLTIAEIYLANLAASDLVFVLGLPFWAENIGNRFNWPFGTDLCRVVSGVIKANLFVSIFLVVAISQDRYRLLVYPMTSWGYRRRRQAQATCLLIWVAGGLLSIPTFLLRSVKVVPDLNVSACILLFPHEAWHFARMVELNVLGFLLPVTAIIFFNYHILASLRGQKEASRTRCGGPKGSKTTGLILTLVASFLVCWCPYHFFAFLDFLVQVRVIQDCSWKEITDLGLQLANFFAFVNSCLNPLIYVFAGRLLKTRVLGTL
Outline: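 CHO K1 cells stably expressing human or rat B1R, loaded with Fluo-4 and read in FLIPR (ex 488, em 540 nm, peak fluorescence). Test compound 10 μM preincubated 10-20 min, then EC80 agonist added (Lys-Des-Arg9-bradykinin for human, Des-Arg9-bradykinin for rat); % inhibition relative to maximum achievable inhibition.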

inhibition at 10 µM [1] [%]	inhibition at 10 µM [2] [%]	Structure (SMILES)
100	102	COc1cc(C)c(S(=O)(=O)N(CCOCC(=O)N2CCC(OCCN3CCCC3)(c3cccnc3)CC2)Cc2cccnc2)c(C)c1 [Example 5, 4-methoxy-2,6-dimethyl-N-(2-(2-oxo-2-(4-(pyridin-3-yl)-4-(2-(pyrrolidin-1-yl)ethoxy)piperidin-1-yl)ethoxy)ethyl)-N-(pyridin-3-ylmethyl)benzenesulfonamide]
98	100	COc1cc(C)c(S(=O)(=O)N(CCOCC(=O)N2CCC(OCCN3CCCC3)(c3cccnc3)CC2)C(c2ccccc2)c2ccccc2)c(C)c1 [Example 6, N-benzhydryl-4-methoxy-2,6-dimethyl-N-(2-(2-oxo-2-(4-(pyridin-3-yl)-4-(2-(pyrrolidin-1-yl)ethoxy)piperidin-1-yl)ethoxy)ethyl)benzenesulfonamide]
104	102	COc1cc(C)c(S(=O)(=O)N(C)CCOCC(=O)N2CCC(OCCN3CCCCC3)(c3cccnc3)CC2)c(C)c1 [Example 15, 4-methoxy-N,2,6-trimethyl-N-(2-(2-oxo-2-(4-(2-(piperidin-1-yl)ethoxy)-4-(pyridin-3-yl)piperidin-1-yl)ethoxy)ethyl)-benzenesulfonamide]
102	103	COc1cc(C)c(S(=O)(=O)N(C)CCOCC(=O)N2CCC(OCCCN3CCCCC3)(c3cccnc3)CC2)c(C)c1 [Example 18, 4-methoxy-N,2,6-trimethyl-N-(2-(2-oxo-2-(4-(3-(piperidin-1-yl)propoxy)-4-(pyridin-3-yl)piperidin-1-yl)ethoxy)ethyl)benzenesulfonamide]

Further lines, the compound ahead of its results:

Structure (SMILES)	inhibition at 10 µM [1] [%]	inhibition at 10 µM [2] [%]
O=C(COCCN(C1CCc2ccccc21)S(=O)(=O)c1ccc(Cl)cc1Cl)N1CCC(OCCN2CCCC2)(c2cccnc2)CC1 (stereo not shown) [Example 7, 2,4-dichloro-N-(2,3-dihydro-1H-inden-1-yl)-N-(2-(2-oxo-2-(4-(pyridin-3-yl)-4-(2-(pyrrolidin-1-yl)ethoxy)piperidin-1-yl)ethoxy)ethyl)benzenesulfonamide]	99	94
O=C(CCCC1CCCCN1S(=O)(=O)c1ccccc1C(F)(F)F)N1CCC(OCCN2CCCC2)(c2cccnc2)CC1 (stereo not shown) [Example 8, 1-(4-(pyridin-3-yl)-4-(2-(pyrrolidin-1-yl)ethoxy)piperidin-1-yl)-4-(1-(2-(trifluoromethyl)phenylsulfonyl)piperidin-2-yl)butan-1-one]	70	60
Cc1cccc(Cl)c1S(=O)(=O)N1CCCCC1CCCC(=O)N1CCC(OCCN2CCCC2)(c2cccnc2)CC1 (stereo not shown) [Example 9, 4-(1-(2-chloro-6-methylphenylsulfonyl)piperidin-2-yl)-1-(4-(pyridin-3-yl)-4-(2-(pyrrolidin-1-yl)ethoxy)piperidin-1-yl)butan-1-one]	100	102
O=C(CC1CCCCN1S(=O)(=O)c1cccc(C(F)(F)F)c1)N1CCC(OCCN2CCCCC2)(c2cccnc2)CC1 (stereo not shown) [Example 10, 1-(4-(2-(piperidin-1-yl)ethoxy)-4-(pyridin-3-yl)piperidin-1-yl)-2-(1-(3-(trifluoromethyl)phenylsulfonyl)piperidin-2-yl)ethanone]	104	44
O=C(CC(NS(=O)(=O)c1ccc2ccccc2c1)c1ccccc1)N1CCC(OCCN2CCCCC2)(c2cccnc2)CC1 (stereo not shown) [Example 11, N-(3-oxo-1-phenyl-3-(4-(2-(piperidin-1-yl)ethoxy)-4-(pyridin-3-yl)piperidin-1-yl)propyl)naphthalene-2-sulfonamide]	103	52
Cc1cc(S(=O)(=O)N2CCCCC2CCC(=O)N2CCC(OCCCN3CCCCC3)(c3cccnc3)CC2)c(C)cc1Cl (stereo not shown) [Example 12, 3-(1-(4-chloro-2,5-dimethylphenylsulfonyl)piperidin-2-yl)-1-(4-(3-(piperidin-1-yl)propoxy)-4-(pyridin-3-yl)piperidin-1-yl)propan-1-one]	103	46
Cc1cc(S(=O)(=O)N2CCCCC2CCC(=O)N2CCC(OCCN3CCCCC3)(c3cccnc3)CC2)c(C)cc1Cl (stereo not shown) [Example 13, 3-(1-(4-chloro-2,5-dimethylphenylsulfonyl)piperidin-2-yl)-1-(4-(2-(piperidin-1-yl)ethoxy)-4-(pyridin-3-yl)piperidin-1-yl)propan-1-one]	101	50
COc1cc(C)c(S(=O)(=O)N2CCCCC2COCC(=O)N2CCC(OCCN3CCCCC3)(c3cccnc3)CC2)c(C)c1 (stereo not shown) [Example 14, 2-((1-(4-methoxy-2,6-dimethylphenylsulfonyl)piperidin-2-yl)methoxy)-1-(4-(2-(piperidin-1-yl)ethoxy)-4-(pyridin-3-yl)piperidin-1-yl)ethanone]	103	102
O=C(COCC1CCc2ccccc2N1S(=O)(=O)c1ccc(Cl)c(Cl)c1)N1CCC(OCCN2CCCCC2)(c2cccnc2)CC1 (stereo not shown) [Example 16, 2-((1-(3,4-dichlorophenylsulfonyl)-1,2,3,4-tetrahydroquinolin-2-yl)methoxy)-1-(4-(2-(piperidin-1-yl)ethoxy)-4-(pyridin-3-yl)piperidin-1-yl)ethanone]	103	87
COc1cc(C)c(S(=O)(=O)N2CCCCC2COCC(=O)N2CCC(OCCCN3CCCCC3)(c3cccnc3)CC2)c(C)c1 (stereo not shown) [Example 17, 2-((1-(4-methoxy-2,6-dimethylphenylsulfonyl)piperidin-2-yl)methoxy)-1-(4-(3-(piperidin-1-yl)propoxy)-4-(pyridin-3-yl)piperidin-1-yl)ethanone]	102	102
